The record followed here is ChEMBL document CHEMBL4118051, “Scalemic Caged Xanthones Isolated from the Stem Bark Extract of Garcinia propinqua” (J Nat Prod, 2017).

The experiment relates to HCT-116. Kind of experiment: Cytotoxicity against human HCT116 cells after 24 hrs by MTT assay. It counts as functional, cell-based. The conditions noted are these: HCT-116, 24 h.

For the molecule `CO[C@H]1[C@@H]2C[C@H]3C(C)(C)O[C@@](/C=C/C(C)(C)O)(C2=O)[C@@]32Oc3c(c(O)cc4c3C(C)(C)C(C)O4)C(=O)[C@H]12` (stereo partly drawn), the midpoint of inhibition, the IC50, lay at 14.2 µM.
On to `CC(C)=CCOc1cc(O)c2c(c1)OC13C(=CC4CC1C(C)(C)OC3(CC=C(C)C)C4=O)C2=O` (mixture of isomers), for which the 50% inhibitory concentration (IC50) came to 23.9 µM.
In turn, `COc1cccc2c1C(=O)c1c(O)c3c(c(O)c1C2=O)C[C@@](O)(C(=O)CO)C[C@@H]3O[C@H]1C[C@H](N)[C@H](O)[C@H](C)O1` [DOXORUBICIN] gave an IC50 of 9.74 µM.

For orientation: IC50 means the concentration needed to halve the response being measured. A lower IC50 goes with higher potency.
